Values joined by “and” are separate entries in the source; they are usually repeats but may differ in a detail not shown here. Equal values may be shown once. Read-outs that look alike come from different tables or passages of the source.
Columns and labels:
[1] = system: BJhTERT cells; test: Cell viability assay (resazurin), BJhTERT non-transformed control; format: cell-based; design: key to cell viability, cytotoxicity curve (Figure3H): % viability relative to untreated control wells; details: for percentage cell viability / cell viability, cytotoxicity curve (Figure3H): BJhTERT; for percentage cell viability: 100 μM, two independent experiments
Protocol: (§1) A2780, HCT116, and HEK293T cell lines were authenticated with STR profiling, frozen down, and these stocks were used in experiments. […] All media were supplemented with 10% FBS and 1% P/S. All cell culture media, additives, and reagents were purchased from Thermo Fisher Scientific. The cell plates were incubated 72 hours in a humidified incubator at 37 °C with 5% CO2, after which resazurin (Sigma-Aldrich), 10 µL/well, was added to a final concentration of 10 µg/mL. […] The cell viability was calculated compared to untreated control wells and the EC50 values were determined in XLfit (IDBS).

[2] = as above; format: cell-based; design: key to cell viability, cytotoxicity curve (Figure3H): % viability relative to untreated control wells; details: human, BJhTERT; for viability at 72 h, 100 µM: two independent experiments, read-out: percentage cell viability
Protocol: as §1

[3] = molecular target: human OGG1 enzyme (Homo sapiens, UniProt O15527); test: Differential scanning fluorimetry (DSF) thermal shift assay; format: binding; design: ∆Tm (K): unit of the concentration uncertain
Protocol: The temperature was increased from 20 °C to 85 °C with 10 readings/degree. Tm values were calculated using an excel template and fitting to the Boltzmann equation in Prism v.6.07 (GraphPad Software).

[4] = Plasma protein binding in human plasma (RED); format: in vitro ADME; details: plasma (50% plasma, 50% isotonic buffer), pH 7.4, read-out: Protein plasma binding, fu (%)
Protocol: Pooled human plasma was provided by Uppsala Academic Hospital and was collected from two donors (non-smoking) (citric acid). In brief, 0.2 mL of the plasma (50% plasma, 50% isotonic buffer) test solution (typically 10 µM final compound concentration) was transferred to the membrane tube in the RED insert (ThermoFisher Scientific). 0.35 ml isotonic phosphate buffer pH 7.4 was added to the other side of the membrane. The 96-well base plate was then sealed with an adhesive plastic film (Scotch Pad) to prevent evaporation. The sample was incubated with rapid rotation (>>900 rpm) on a Kisker rotational incubator at 37 °C for 4 h to achieve equilibrium. Prior to LC-MS/MS analysis the plasma and buffer samples were treated with the addition of Methanol (1:3) containing Warfarin as an internal standard to precipitate proteins. The standard curve was created using the plasma standard. The plate was then sealed, and centrifuged and the supernatant was analyzed by liquid chromatography coupled to triple quadrupole mass spectrometry (LC-MS/MS).

[5] = system: A2780 cells; test: Cancer cell viability assay (resazurin), A2780; format: cell-based; design: key to cell viability, cytotoxicity curve (Figure3H): % viability relative to untreated control wells; details: for percentage cell viability: A2780, 100 μM, 100 µM; for percentage cell viability / viability at 100 µM: two independent experiments; for viability at 100 µM: A2780, A2780, 100 μM, read-out: percentage cell viability
Protocol: Three different cancer cell lines A2780 (ovarian cancer, ECACC 93112519), A549 (lung cancer, ATCC 60150896) and HCT116 (colon cancer, ATCC CCL-247), and one immortalized fibroblast cell line (BJhTERT) as control, were seeded in black/clear 384-well plates (Corning #3764), 50 µL/well, containing 11 concentrations, nano-dispensed, dose-response curves of the test compounds. A2780, HCT116, and HEK293T cell lines were authenticated with STR profiling, frozen down, and these stocks were used in experiments. The A2780 cells were cultured in RPMI 1640, the A549 and BJhTERT cells in DMEM, and the HCT116 cells in McCoys 5 A medium. All media were supplemented with 10% FBS and 1% P/S. All cell culture media, additives, and reagents were purchased from Thermo Fisher Scientific. The cell plates were incubated 72 hours in a humidified incubator at 37 °C with 5% CO2, after which resazurin (Sigma-Aldrich), 10 µL/well, was added to a final concentration of 10 µg/mL. The plates were incubated for 6 hours with resazurin followed by fluorescence readings in a Sense plate reader (Hidex), resorufin protocol (ex 544 nm/em 595 nm). The cell viability was calculated compared to untreated control wells and the EC50 values were determined in XLfit (IDBS).

[6] = molecular target: T1, OGG1-GFP in U2OS cells (Homo sapiens, UniProt O15527); test: Laser microirradiation assay (OGG1-GFP recruitment to DNA damage sites); format: cell-based; details: for OGG1-GFP recruitment to DNA damage sites, intensity normalised to time 0 (Figure3E): single-cell replicate traces
T1 construct: expressed in transfected cells
T1 sequence (O15527 whole entry): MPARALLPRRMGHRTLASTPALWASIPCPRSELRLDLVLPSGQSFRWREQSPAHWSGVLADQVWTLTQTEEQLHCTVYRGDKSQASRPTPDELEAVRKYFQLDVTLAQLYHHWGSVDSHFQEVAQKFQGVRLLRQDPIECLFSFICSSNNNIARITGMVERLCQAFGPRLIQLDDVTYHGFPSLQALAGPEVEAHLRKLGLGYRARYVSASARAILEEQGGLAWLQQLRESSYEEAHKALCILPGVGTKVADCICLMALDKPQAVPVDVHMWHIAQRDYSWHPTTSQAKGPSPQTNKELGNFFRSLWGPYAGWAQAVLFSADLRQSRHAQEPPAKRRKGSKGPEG

Sequence of human OGG1 enzyme (O15527 whole entry): as above

With Cc1nc(-c2cc(F)c(CC(=O)Nc3noc4c3CCCC4)c(F)c2)c(C)[nH]1 [compound 23] the percentage cell viability [1] was 68.66%, the viability at 72 h, 100 µM ([2]; BJhTERT immortalized fibroblast cells) was 67.4% and the “∆Tm (K)” value ([3]; 99 μM) was 9.0 ± 0.2 K. The “∆Tm (K)” value ([3]; 99 (unit uncertain) as printed in sheet footnote) was 9.0 ± 0.2 K, the ΔTm ([3]; concentration not given) was 9.0 K and the fraction unbound at 4 h, 10 µM [4] was 0.048. The percentage cell viability [5] was 42.92%, the viability at 100 µM ([5]; Homo sapiens) was 33.8% and the “OGG1-GFP recruitment to DNA damage sites, intensity normalised to time 0 (Figure3E)” value ([6]; 10uM, time 14 s) was 1.25 (2×) and 1.24 (4×) and 1.21 and 1.14 and 1.19 (2×) and 1.22 (2×) and 1.23 and 1.26 and 1.2. The “OGG1-GFP recruitment to DNA damage sites, intensity normalised to time 0 (Figure3E)” value ([6]; 10uM, time 16 s) was 1.27 (3×) and 1.26 (2×) and 1.29 (2×) and 1.23 (4×) and 1.12 and 1.19 and 1.18 and 1.24, the “OGG1-GFP recruitment to DNA damage sites, intensity normalised to time 0 (Figure3E)” value ([6]; 10uM, time 18 s) was 1.27 (2×) and 1.28 (3×) and 1.24 (3×) and 1.15 and 1.21 and 1.19 and 1.25 (3×) and 1.31 and the “OGG1-GFP recruitment to DNA damage sites, intensity normalised to time 0 (Figure3E)” value ([6]; 10uM, time 20 s) was 1.3 and 1.29 and 1.33 and 1.26 and 1.15 and 1.24 and 1.21 and 1.27 (2×) and 1.28. For the same compound, the “Maximum Intensity (OGG1-GFP at damage sites)” value ([6]; 50uM, single cells, U2OS) was 1.31 and 1.3 and 1.27 and 1.34 and 1.37 and 1.28 and 1.23 and 1.32, the “OGG1-GFP recruitment to DNA damage sites, intensity normalised to time 0 (Figure3E)” value ([6]; 50uM, time 14 s) was 1.18 (2×) and 1.14 and 1.21 (4×) and 1.2 (3×) and 1.12 and 1.19 (2×) and 1.22 and 1.23 and the “OGG1-GFP recruitment to DNA damage sites, intensity normalised to time 0 (Figure3E)” value ([6]; 50uM, time 16 s) was 1.19 and 1.14 and 1.22 (4×) and 1.15 and 1.21 (3×) and 1.2 (2×) and 1.24 and 1.25 and 1.23. The “OGG1-GFP recruitment to DNA damage sites, intensity normalised to time 0 (Figure3E)” value ([6]; 50uM, time 18 s) was 1.2 (3×) and 1.15 (2×) and 1.22 (3×) and 1.21 (2×) and 1.24 (3×) and 1.23 and 1.27 and the “recruitment of OGG1-GFP to laser-induced DNA damage sites” value ([6]; U2OS cells) was “impaired”.

With Nc1nn(-c2ccc(CC(=O)Nc3noc4c3CCCC4)cc2)c2ccccc12 [compound 11] the percentage cell viability [1] was 40.28%, the “cell viability, cytotoxicity curve (Figure3H)” value (from here on “cell viability … (Figure3H)”) ([1]; Log conc. (M) 1.69824e-9) was 80.73 and 114.45 and the “cell viability … (Figure3H)” value ([1]; Log conc. (M) 5.12861e-9) was 111.95. For the same compound, the “cell viability … (Figure3H)” value ([1]; Log conc. (M) 1.51356e-8) was 93.48, the “cell viability … (Figure3H)” value ([1]; Log conc. (M) 4.57088e-8) was 99.27 and the “cell viability … (Figure3H)” value ([1]; Log conc. (M) 1.38038e-7) was 112.5. The “cell viability … (Figure3H)” value ([1]; Log conc. (M) 4.0738e-7) was 95.56, the “cell viability … (Figure3H)” value ([1]; Log conc. (M) 1.23027e-6) was 91.5 and the “cell viability … (Figure3H)” value ([1]; Log conc. (M) 3.71535e-6) was 96.04. The “cell viability … (Figure3H)” value ([1]; Log conc. (M) 1.12202e-5) was 108.1, the “cell viability … (Figure3H)” value ([1]; Log conc. (M) 3.31131e-5) was 71.45 and the “cell viability … (Figure3H)” value ([1]; Log conc. (M) 0.0001) was 40.28. It also gave an EC50 ([1]; non-transformed cells (BJhTERT), 72 h, read-out: EC50 (loss of viability)) greater than 70 µM, a viability at 72 h, 100 µM [2] of 38.2% and a viability at 72 h, 5.12861e-09 M ([2]; Log conc. (M) 5.12861e-9, read-out: cell viability, cytotoxicity curve (Figure3H)) of 94.3%. The viability at 72 h, 1.51356e-08 M ([2]; Log conc. (M) 1.51356e-8, read-out: cell viability, cytotoxicity curve (Figure3H)) was 81.4%, the viability at 72 h, 4.57088e-08 M ([2]; Log conc. (M) 4.57088e-8, read-out: cell viability, cytotoxicity curve (Figure3H)) was 92% and the viability at 72 h, 1.38038e-07 M ([2]; Log conc. (M) 1.38038e-7, read-out: cell viability, cytotoxicity curve (Figure3H)) was 101%. The viability at 72 h, 4.0738e-07 M ([2]; Log conc. (M) 4.0738e-7, read-out: cell viability, cytotoxicity curve (Figure3H)) was 79.8%, the viability at 72 h, 1.23027e-06 M ([2]; Log conc. (M) 1.23027e-6, read-out: cell viability, cytotoxicity curve (Figure3H)) was 87.1% and the viability at 72 h, 3.71535e-06 M ([2]; Log conc. (M) 3.71535e-6, read-out: cell viability, cytotoxicity curve (Figure3H)) was 84%. It also gave a viability at 72 h, 1.12202e-05 M ([2]; Log conc. (M) 1.12202e-5, read-out: cell viability, cytotoxicity curve (Figure3H)) of 89.3%, a viability at 72 h, 3.31131e-05 M ([2]; Log conc. (M) 3.31131e-5, read-out: cell viability, cytotoxicity curve (Figure3H)) of 71% and a viability at 72 h, 0.0001 M ([2]; Log conc. (M) 0.0001, read-out: cell viability, cytotoxicity curve (Figure3H)) of 38.2%. The percentage cell viability [5] was 1.69%, the “cell viability … (Figure3H)” value ([5]; A2780, Log conc. (M) 1.69824e-9) was 91.8 and 117.36 and the “cell viability … (Figure3H)” value ([5]; A2780, Log conc. (M) 5.12861e-9) was 99.13 and 112.7. For the same compound, the “cell viability … (Figure3H)” value ([5]; A2780, Log conc. (M) 1.51356e-8) was 105.26 and 125.33, the “cell viability … (Figure3H)” value ([5]; A2780, Log conc. (M) 4.57088e-8) was 93.79 and 108.52 and the “cell viability … (Figure3H)” value ([5]; A2780, Log conc. (M) 1.38038e-7) was 82.27 and 122.21. The “cell viability … (Figure3H)” value ([5]; A2780, Log conc. (M) 4.0738e-7) was 73.45 and 78.71, the “cell viability … (Figure3H)” value ([5]; A2780, Log conc. (M) 1.23027e-6) was 82.77 and 87.65 and the “cell viability … (Figure3H)” value ([5]; A2780, Log conc. (M) 3.71535e-6) was 59.52 and 70.03. The “cell viability … (Figure3H)” value ([5]; A2780, Log conc. (M) 1.12202e-5) was 22.19 and 22.95, the “cell viability … (Figure3H)” value ([5]; A2780, Log conc. (M) 3.31131e-5) was 6.15 and 7.44 and the “cell viability … (Figure3H)” value ([5]; A2780, Log conc. (M) 0.0001) was 1.69. The viability at 100 µM ([5]; Homo sapiens) was 1.43% and the EC50 ([5]; Homo sapiens, A2780 cancer cells, 72 h, read-out: EC50 (loss of viability)) was 5.4 µM.

— PMC11836371, “Virtual fragment screening for DNA repair inhibitors in vast chemical space” (Nature Communications, 2025)
